Data as given in ChEMBL document CHEMBL1201862, “PubChem BioAssay data set” (2004).
The source made the active and inactive calls.

How the values were obtained:
Leucine aminopeptidase = target: T1, Leucine aminopeptidase (Plasmodium falciparum 3D7, UniProt Q8IL11); assay: P. falciparum M17LAP inhibitors, primary screen, biochemical, fluorogenic H-Leu-NHMec substrate, 1536-well (AID 1619); type: functional
T1 sequence (Q8IL11 whole entry): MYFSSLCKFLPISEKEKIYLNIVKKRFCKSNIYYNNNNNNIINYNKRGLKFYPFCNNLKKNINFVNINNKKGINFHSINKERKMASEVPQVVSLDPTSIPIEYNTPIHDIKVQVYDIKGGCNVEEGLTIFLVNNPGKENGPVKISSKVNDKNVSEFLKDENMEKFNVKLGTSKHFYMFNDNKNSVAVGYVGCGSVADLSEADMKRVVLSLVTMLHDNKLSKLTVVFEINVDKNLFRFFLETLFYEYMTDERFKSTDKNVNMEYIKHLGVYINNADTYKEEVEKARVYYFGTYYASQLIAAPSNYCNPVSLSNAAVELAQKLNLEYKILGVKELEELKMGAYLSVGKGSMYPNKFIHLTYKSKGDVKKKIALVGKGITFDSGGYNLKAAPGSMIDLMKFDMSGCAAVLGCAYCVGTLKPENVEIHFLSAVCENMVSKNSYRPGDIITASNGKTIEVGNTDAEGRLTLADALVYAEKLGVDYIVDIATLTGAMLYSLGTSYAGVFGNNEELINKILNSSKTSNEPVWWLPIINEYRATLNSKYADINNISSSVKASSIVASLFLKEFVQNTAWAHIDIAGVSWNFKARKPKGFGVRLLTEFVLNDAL

[1] = target: Peroxisome proliferator-activated receptor gamma/Nuclear receptor coactivator 2 (Homo sapiens, UniProt P37231); type: functional;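 note: agonist potency for raising coactivator recruitment to the receptor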
[2] = target: Peroxisome proliferator-activated receptor gamma/Nuclear receptor coactivator 1 (Homo sapiens, UniProt P37231); type: functional;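 note: agonist potency as compounds enhance coactivator SRC-1 recruitment to PPARgamma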
[3] = target: Peroxisome proliferator-activated receptor gamma/Nuclear receptor coactivator 3 (Homo sapiens, UniProt P37231); type: functional;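 note: agonist potency for raising coactivator recruitment to the receptor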
Ion channel NompC = Ion channel NompC (Danio rerio, UniProt Q7T1G6); assay: Dose response cell-based high-throughput screening assay for agonists of the transient receptor potential channel N1 (TRPN1). [Related pubchem assays (depositor defined):AID1424, AID1448]; type: functional
Mucolipin-3 = target: T2, Mucolipin-3 (Homo sapiens, UniProt Q8TDD5); assay: Fluorescence counterscreen assay for […] agonists: dose response cell-based high-throughput screening assay to identify agonists of the transient receptor potential channel ML3 (TRPML3). [Related pubchem assays: 1424, 1448 ]; type: functional
T2 sequence (Q8TDD5 whole entry): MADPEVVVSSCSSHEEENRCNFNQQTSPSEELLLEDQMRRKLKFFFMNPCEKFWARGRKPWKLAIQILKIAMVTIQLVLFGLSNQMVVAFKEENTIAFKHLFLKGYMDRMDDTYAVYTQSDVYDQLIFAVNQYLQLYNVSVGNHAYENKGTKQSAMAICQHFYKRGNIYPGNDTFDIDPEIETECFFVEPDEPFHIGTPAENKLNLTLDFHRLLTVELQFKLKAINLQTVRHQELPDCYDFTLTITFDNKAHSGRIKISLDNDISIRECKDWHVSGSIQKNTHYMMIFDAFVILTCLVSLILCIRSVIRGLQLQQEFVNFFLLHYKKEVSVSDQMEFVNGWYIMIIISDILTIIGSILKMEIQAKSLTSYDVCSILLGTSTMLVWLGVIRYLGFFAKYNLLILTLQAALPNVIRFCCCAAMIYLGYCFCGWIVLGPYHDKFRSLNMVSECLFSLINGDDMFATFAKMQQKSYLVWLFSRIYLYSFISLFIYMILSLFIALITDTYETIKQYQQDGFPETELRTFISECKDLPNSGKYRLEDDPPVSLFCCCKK

[4] = target: T3, Calpain-2 catalytic subunit (Sus scrofa, UniProt P43367); assay: m-calpain protease blockers, concentration series – biochemical, fluorogenic peptide substrate, dose response (AID 1420); type: functional
T3 sequence (P43367 whole entry): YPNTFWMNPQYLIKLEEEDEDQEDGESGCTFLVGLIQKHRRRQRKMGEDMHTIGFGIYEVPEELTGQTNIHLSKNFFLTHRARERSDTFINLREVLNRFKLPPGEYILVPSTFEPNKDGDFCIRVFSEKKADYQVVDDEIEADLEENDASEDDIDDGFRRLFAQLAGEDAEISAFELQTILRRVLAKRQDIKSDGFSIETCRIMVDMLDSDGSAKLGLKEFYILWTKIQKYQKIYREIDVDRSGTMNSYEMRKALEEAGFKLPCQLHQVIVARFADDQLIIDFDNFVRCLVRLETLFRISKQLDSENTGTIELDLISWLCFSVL

[5] = mitochondrial function rescue without frataxin homolog – Friedreich's ataxia, plus single-dose screen, dose response (AID 1465); type: functional;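 note: yeast depleted of Yfh1p frataxin homolog grown on glycerol needing respiration; WST-1 tetrazolium dye reduction as measure of cellular dehydrogenase metabolic activity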
[6] = target: T4, Voltage-gated N-type calcium channel alpha-1B subunit/Amyloid beta A4 precursor protein-binding family A member 1 (Homo sapiens, UniProt Q00975+Q02410); type: protein assay
[7] = target: T4, Voltage-gated N-type calcium channel alpha-1B subunit/Amyloid beta A4 precursor protein-binding family A member 1; type: protein assay; remark: listed apart in the source
[8] = target: T5, Replicative DNA helicase DnaB (Mycobacterium tuberculosis, UniProt P9WMR3); assay: DnaB intein splicing inhibitors, dose response, biochemical, cell-free fluorescence (AID 449749); type: functional
T5 sequence (P9WMR3 whole entry): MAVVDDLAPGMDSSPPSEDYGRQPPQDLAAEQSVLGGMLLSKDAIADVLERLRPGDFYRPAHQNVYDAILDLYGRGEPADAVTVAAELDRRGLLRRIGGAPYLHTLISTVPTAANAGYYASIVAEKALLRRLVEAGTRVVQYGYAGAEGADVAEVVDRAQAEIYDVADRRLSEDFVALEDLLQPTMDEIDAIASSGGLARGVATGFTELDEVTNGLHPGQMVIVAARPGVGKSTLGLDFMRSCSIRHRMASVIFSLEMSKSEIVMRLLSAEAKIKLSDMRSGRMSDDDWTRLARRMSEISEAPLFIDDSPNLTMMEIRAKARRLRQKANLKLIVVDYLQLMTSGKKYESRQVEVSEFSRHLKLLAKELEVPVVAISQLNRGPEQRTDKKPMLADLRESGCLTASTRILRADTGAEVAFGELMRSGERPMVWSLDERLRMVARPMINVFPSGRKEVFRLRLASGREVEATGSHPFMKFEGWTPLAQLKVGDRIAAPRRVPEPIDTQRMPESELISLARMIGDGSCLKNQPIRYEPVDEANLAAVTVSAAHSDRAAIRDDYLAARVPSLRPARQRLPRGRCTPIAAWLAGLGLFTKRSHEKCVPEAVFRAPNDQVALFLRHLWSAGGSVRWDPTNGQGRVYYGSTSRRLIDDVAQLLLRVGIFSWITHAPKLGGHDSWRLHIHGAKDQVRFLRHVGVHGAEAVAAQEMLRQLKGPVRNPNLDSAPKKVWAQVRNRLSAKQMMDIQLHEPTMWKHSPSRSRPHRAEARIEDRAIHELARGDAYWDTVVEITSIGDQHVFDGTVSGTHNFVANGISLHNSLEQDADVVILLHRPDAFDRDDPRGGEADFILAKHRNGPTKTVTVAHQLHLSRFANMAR

Protein RecA = target: T6, Protein RecA (Mycobacterium tuberculosis, UniProt P9WHJ3); assay: Fluorescence Cell-Free Homogeneous Dose Retest to Identify Inhibitors of RecA-Intein Splicing Activity. [Related pubchem assays (depositor defined):AID2097, AID2223, AID489010, AID492950]; type: functional
T6 sequence (P9WHJ3 whole entry): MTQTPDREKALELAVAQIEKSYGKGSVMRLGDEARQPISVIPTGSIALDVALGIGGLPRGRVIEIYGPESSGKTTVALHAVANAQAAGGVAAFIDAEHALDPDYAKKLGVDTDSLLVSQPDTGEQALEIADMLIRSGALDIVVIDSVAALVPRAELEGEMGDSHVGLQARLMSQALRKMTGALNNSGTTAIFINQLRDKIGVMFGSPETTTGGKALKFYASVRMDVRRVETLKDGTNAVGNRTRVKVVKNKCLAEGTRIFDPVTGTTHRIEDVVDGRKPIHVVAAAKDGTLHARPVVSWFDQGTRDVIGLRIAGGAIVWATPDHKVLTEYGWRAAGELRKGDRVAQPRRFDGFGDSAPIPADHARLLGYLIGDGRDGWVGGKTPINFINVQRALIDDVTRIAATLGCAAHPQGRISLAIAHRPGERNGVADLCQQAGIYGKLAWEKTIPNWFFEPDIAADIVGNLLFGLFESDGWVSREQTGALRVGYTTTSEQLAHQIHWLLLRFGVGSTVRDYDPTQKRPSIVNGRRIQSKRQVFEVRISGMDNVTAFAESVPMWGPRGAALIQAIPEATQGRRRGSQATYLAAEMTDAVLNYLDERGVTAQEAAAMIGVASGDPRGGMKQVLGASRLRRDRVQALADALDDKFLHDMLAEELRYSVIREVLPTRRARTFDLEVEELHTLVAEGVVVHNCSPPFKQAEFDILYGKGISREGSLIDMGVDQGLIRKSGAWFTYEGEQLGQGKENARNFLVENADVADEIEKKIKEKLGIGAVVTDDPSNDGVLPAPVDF

Paired box protein Pax-8 = Paired box protein Pax-8 (Homo sapiens, UniProt Q06710); assay: PAX8 transcriptional activity inhibition in RMG-I – RMG-I cells, luciferase, cherry-pick, dose response (AID 687027); type: functional, cell-based;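 note: luciferase reporter driven by Pax8 target thyroperoxidase promoter measured by SteadyGlo luminescence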
[9] = CMV-driven luciferase expression suppression in HEK293 – cell-based, luminescence, dry powder, counter-screen for Pax8 inhibitor project, dose response (AID 743020); type: functional
[10] = general cell-killing toxicity readout – plate reader, dry powder samples, cytotoxicity control for PAX8 inhibitor project, dose response (AID 743021); type: functional, cell-based
Hexokinase HKDC1 = target: T7, Hexokinase HKDC1 (Homo sapiens, UniProt Q2TB90); assay: activation of HKDC1 glucose phosphorylation – biochemical, W721R variant, dose response (AID 504730); type: functional
T7 sequence (Q2TB90 whole entry): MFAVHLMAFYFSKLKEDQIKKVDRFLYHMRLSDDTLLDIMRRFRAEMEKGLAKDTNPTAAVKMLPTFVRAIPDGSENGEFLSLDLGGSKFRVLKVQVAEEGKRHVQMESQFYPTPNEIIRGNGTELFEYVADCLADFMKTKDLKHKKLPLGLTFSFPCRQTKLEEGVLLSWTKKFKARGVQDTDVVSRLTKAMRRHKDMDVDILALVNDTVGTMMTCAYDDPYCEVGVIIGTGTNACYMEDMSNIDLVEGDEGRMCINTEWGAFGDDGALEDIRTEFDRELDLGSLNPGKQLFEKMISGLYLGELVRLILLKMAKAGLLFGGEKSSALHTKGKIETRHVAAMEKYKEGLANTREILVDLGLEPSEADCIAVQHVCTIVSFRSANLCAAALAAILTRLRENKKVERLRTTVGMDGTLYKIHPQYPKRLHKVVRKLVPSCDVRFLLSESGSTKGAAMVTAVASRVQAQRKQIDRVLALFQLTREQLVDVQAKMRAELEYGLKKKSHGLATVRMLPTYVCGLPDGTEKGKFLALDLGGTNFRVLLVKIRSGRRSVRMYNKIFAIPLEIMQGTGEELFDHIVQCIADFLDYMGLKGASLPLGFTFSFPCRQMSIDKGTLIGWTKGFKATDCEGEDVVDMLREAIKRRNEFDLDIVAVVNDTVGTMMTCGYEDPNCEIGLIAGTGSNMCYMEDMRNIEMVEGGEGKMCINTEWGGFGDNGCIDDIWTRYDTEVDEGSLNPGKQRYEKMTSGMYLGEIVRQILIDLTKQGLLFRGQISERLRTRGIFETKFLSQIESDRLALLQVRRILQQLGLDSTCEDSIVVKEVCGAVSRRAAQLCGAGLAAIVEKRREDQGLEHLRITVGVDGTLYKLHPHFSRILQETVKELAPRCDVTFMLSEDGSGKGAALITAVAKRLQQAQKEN

Hexokinase-1 = target: T8, Hexokinase-1 (Homo sapiens, UniProt P19367); assay: HK1 enzyme activation by HKDC1 hits – biochemical, selectivity assay for HKDC1 activator project, dose response (AID 504762); type: functional
T8 sequence (P19367 whole entry): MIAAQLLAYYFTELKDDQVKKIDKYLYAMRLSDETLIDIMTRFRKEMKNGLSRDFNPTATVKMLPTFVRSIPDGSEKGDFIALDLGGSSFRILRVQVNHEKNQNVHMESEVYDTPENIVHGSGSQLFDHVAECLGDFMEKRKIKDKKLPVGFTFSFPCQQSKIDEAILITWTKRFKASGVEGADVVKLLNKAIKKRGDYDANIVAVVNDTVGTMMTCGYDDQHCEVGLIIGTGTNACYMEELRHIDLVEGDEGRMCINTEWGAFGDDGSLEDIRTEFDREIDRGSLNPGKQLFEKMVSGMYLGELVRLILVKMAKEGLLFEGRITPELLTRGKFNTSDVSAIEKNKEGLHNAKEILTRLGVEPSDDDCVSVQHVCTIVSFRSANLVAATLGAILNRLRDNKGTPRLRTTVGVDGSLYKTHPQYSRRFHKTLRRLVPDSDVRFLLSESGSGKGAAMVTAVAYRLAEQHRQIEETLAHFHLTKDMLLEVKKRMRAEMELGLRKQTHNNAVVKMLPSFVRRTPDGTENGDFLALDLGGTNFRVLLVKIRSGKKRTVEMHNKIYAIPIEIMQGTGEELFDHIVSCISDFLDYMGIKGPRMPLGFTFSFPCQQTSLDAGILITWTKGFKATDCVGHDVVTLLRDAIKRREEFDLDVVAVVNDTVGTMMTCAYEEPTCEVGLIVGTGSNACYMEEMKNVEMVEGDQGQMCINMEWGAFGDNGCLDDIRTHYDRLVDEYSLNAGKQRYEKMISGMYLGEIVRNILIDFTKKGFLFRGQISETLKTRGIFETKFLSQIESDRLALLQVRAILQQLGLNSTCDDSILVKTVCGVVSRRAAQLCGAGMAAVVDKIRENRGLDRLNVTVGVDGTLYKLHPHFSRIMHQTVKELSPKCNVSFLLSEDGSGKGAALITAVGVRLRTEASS

T4 sequence (Q00975 whole entry): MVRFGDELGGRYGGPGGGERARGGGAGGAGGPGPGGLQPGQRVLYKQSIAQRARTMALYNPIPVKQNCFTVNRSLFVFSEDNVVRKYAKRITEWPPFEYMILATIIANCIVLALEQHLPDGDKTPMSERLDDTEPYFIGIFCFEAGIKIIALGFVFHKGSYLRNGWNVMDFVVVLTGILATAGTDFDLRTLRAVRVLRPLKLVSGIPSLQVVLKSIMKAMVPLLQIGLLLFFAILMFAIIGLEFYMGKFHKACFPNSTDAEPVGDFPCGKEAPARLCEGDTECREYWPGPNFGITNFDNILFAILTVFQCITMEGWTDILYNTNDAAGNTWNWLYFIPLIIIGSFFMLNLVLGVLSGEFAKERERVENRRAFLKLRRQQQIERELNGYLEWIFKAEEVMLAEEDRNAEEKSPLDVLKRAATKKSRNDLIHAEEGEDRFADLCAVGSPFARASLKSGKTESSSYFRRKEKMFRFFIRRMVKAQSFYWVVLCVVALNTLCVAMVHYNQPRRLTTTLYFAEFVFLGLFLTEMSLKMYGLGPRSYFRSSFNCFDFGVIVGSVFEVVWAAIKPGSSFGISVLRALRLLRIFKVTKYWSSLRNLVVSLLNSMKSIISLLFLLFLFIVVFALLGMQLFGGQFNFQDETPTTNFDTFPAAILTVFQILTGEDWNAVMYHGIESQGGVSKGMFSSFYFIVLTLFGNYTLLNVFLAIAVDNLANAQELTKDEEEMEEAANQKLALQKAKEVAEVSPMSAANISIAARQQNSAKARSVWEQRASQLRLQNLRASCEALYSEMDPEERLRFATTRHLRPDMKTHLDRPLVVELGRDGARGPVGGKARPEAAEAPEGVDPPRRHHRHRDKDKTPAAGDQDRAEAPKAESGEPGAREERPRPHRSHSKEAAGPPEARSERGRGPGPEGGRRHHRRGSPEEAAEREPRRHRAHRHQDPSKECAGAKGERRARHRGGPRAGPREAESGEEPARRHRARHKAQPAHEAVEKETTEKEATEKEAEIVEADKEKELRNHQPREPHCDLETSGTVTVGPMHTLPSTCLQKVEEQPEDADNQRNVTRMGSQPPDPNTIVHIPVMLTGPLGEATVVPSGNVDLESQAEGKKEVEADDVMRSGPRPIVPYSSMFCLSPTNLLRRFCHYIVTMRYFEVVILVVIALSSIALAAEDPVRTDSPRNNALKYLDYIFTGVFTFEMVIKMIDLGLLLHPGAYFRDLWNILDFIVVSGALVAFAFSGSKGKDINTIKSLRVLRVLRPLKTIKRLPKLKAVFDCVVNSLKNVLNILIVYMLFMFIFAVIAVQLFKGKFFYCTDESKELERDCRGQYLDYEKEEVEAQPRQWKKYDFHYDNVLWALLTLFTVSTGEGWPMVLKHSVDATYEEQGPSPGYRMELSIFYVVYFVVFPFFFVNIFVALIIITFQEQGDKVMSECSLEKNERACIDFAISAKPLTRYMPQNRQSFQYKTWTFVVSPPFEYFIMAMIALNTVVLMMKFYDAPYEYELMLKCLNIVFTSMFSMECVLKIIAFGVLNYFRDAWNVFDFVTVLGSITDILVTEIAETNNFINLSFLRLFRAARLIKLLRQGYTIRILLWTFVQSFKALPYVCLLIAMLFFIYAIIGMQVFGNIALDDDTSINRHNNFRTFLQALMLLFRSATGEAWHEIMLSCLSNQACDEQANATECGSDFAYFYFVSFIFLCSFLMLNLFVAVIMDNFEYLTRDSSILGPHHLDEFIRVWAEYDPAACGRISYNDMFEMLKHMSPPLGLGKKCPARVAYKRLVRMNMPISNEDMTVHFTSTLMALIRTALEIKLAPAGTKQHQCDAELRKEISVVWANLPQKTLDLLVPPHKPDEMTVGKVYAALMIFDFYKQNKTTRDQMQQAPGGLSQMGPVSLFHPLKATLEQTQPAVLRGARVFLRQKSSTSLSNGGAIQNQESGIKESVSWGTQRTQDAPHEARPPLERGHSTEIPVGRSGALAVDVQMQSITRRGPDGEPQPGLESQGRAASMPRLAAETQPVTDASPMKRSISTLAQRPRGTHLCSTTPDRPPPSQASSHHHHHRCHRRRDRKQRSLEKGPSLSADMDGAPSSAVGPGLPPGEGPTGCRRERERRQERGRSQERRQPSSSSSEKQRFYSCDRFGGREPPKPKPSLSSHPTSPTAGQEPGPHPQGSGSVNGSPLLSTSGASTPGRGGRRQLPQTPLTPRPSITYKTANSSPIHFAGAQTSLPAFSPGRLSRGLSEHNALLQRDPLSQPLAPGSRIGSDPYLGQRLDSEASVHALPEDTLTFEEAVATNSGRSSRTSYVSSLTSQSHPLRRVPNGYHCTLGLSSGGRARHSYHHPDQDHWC
T4 sequence (Q02410 whole entry): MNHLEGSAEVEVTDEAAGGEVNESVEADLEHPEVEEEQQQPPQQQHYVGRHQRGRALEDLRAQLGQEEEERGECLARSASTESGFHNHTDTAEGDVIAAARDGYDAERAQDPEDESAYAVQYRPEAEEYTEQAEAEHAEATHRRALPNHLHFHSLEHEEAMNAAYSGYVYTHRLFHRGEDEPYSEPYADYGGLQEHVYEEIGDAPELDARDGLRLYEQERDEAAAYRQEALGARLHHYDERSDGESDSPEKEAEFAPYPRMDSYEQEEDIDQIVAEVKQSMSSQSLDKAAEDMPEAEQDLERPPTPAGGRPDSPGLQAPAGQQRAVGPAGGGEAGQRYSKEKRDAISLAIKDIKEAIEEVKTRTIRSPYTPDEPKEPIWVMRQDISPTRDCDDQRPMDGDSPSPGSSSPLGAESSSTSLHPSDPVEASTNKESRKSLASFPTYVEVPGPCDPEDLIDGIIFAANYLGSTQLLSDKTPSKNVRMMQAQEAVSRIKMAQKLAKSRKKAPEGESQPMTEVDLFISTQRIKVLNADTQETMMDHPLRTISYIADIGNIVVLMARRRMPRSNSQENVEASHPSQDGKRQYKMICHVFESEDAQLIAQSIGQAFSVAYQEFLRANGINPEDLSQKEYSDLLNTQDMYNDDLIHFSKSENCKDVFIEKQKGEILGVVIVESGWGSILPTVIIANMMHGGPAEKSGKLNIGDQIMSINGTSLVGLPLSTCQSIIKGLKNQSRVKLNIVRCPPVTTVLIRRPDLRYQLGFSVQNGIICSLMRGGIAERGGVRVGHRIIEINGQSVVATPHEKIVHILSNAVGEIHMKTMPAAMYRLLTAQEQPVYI
Chain of Ion channel NompC (Q7T1G6 whole entry): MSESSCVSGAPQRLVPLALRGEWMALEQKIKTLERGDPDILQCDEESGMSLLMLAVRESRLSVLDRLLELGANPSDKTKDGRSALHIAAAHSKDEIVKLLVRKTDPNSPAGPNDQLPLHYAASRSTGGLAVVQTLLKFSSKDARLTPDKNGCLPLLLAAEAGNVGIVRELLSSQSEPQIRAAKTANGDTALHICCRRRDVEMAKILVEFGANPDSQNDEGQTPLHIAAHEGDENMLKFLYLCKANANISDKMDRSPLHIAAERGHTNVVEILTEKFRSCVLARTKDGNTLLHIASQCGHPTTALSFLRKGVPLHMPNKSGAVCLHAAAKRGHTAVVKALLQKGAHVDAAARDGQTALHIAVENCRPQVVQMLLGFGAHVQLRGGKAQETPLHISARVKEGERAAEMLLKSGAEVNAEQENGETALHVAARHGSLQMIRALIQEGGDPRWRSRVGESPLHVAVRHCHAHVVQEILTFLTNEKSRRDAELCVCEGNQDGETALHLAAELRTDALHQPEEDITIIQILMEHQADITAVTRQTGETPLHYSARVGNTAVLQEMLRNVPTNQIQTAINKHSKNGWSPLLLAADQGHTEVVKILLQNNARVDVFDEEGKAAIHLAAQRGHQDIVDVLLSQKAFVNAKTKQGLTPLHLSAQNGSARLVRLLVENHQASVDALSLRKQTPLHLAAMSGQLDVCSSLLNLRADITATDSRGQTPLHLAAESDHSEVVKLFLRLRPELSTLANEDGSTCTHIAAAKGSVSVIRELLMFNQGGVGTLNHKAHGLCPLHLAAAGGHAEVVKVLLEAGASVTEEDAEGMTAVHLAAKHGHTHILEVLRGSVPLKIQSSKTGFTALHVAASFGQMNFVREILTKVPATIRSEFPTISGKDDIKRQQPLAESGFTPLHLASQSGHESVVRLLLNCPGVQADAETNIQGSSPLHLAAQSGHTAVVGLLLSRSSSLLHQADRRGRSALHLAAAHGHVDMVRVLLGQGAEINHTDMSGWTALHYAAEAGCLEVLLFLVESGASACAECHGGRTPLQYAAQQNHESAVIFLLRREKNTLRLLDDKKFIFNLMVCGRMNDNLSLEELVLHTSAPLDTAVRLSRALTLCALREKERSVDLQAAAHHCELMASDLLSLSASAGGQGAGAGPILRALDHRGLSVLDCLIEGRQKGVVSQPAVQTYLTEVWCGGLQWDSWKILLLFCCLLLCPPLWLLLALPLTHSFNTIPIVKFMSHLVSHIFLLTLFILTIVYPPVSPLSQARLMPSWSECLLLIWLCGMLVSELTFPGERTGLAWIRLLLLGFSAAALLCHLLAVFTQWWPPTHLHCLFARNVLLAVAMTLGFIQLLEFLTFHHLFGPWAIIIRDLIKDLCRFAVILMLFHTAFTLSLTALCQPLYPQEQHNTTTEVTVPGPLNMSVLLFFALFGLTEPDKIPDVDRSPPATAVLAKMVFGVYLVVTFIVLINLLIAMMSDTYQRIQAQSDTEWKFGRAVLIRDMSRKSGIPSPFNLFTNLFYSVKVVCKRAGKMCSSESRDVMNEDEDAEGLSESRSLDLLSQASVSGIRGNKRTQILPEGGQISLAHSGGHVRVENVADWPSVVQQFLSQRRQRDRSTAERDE

CN1CCS/C1=C\C=C1/SC(=S)N(CC(=O)O)C1=O
IC50 (Leucine aminopeptidase): 52.3 µM (active) | EC50 [1]: 62.2 µM (not active) | EC50 [2]: 89.8 µM (not active) | EC50 [3]: > 79.4 µM (not active) | EC50 (Ion channel NompC): 5.26 µM (active) | EC50 (Mucolipin-3): 7.93 µM (active) | IC50 [4]: 7.69 µM (not active) | EC50 [5]: > 100 µM (active)

N#Cc1nccnc1S(=O)(=O)c1cccs1
IC50 [6]: 22.7 µM (active) | IC50 [7]: 1.13 µM (active) | AC50 [8]: 8.49 µM (active) | EC50 (Protein RecA): 6.36 µM (active) | AC50 (Paired box protein Pax-8): 4.59 µM (active) | AC50 [9]: 23 µM (active) | AC50 [10]: 13.5 µM (active)

Cc1ccc(/N=C2\C(=S)N(c3ccc(C)cc3)C(=N)N2/N=C/c2ccc(Cl)cc2)cc1
EC50 (Hexokinase HKDC1): > 80 µM (inactive) | EC50 (Hexokinase-1): > 80 µM (inactive)
